# Test system: Phosphorylation of ERK1/2 in MIA PaCa-2 cells
# Assay: Phospho-ERK1/2 MSD assay in MIA PaCa-2 cells
# Type: cell-based
# Settings: Homo sapiens, MIA PaCa-2, 2 h, read-out: p-ERK IC50 (2 h; MIA PaCa-2), 2 h compound treatment
# Protocol: For compounds in Table 89, the following assay conditions were employed:
# Phospho-ERK1/2 MSD Assay:
# Sixteen hours prior to compound treatment, MIA PaCa-2 or A549 cells were seeded in 96-well cell culture plates at a density of 25,000 cells/well and incubated at 37° C., 5% CO2. A compound dose-response titration was diluted in growth media, added to appropriate wells of a cell culture plate, and then incubated at 37° C., 5% CO2 for 2 or 4 hours (see Table 15). Following compound treatment, cells were stimulated with 10 ng/mL EGF (Roche 11376454001) for 10 min, washed with ice-cold Dulbecco's phosphate-buffered saline, no Ca^2+ or Mg^2+ (ThermoFisher Scientific 14190144), and then lysed in RIPA buffer (50 mM Tris-HCl pH 7.5, 1% Igepal, 0.5% sodium deoxycholate, 150 mM NaCl, and 0.5% sodium dodecyl sulfate) containing protease inhibitors (Roche 4693132001) and phosphatase inhibitors (Roche 4906837001). Phosphorylation of ERK1/2 in compound-treated lysates was assayed using Phospho-ERK1/2 Whole Cell Lysate kits (Meso Scale Discovery K151DWD) according to the manufacturer's protocol. Assay plates were read on a Meso Scale Discovery Sector Imager 6000, and data were analyzed using a 4-parameter logistic model to calculate IC50 values.
row,IC50 [nM],SMILES
1,1700,"C=CC(=O)N1CCN(c2nc(=O)n(-c3ccccc3C(C)C)c3nc(N4CCCC4)c(Cl)cc23)[C@@H](C)C1 [Example 69-3, 6-chloro-4-((2S)-2-methyl-4-(2-propenoyl)-1-piperazinyl)-1-(2-(2-propanyl)phenyl)-7-(1-pyrrolidinyl)pyrido[2,3-d]pyrimidin-2(1H)-one]"

# Same assay, conditions: read-out: p-ERK IC50 (2 h; MIA PaCa-2), 2 h compound treatment
row,IC50 [nM],SMILES
1,179,"C=CC(=O)N1CCN(c2nc(=O)n(-c3c(C)cnn3C(C)C)c3nc(-c4c(O)cccc4F)c(Cl)cc23)[C@@H](C)C1 (single isomer, unassigned) [Example 54-71-2]"

# Biological target: GDP-bound KRAS protein (aa 1-169), containing both G12C and C118A amino acid substitutions (Homo sapiens, UniProt P01116, C118A/G12C)
# Assay: Coupled nucleotide exchange assay (SOS-mediated, AlphaScreen)
# Type: biochemical
# Settings: 5 min compound pre-incubation
# Sequence of GDP-bound KRAS protein (aa 1-169), containing both G12C and C118A amino acid substitutions (P01116 1-169 isoform P01116-2 G12C/C118A): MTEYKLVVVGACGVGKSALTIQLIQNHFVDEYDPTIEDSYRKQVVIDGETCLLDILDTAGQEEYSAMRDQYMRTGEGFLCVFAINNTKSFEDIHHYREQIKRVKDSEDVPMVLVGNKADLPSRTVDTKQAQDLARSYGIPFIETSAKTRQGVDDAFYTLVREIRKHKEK
row,SMILES,Coupled exchange IC50 (5 min)
1,"C=CC(=O)N1CCN(c2nc(=O)n(-c3nc(C)ccc3C(C)C)c3nc(-c4c(O)cccc4F)c(Cl)cc23)[C@@H](C)C1 [Example 54-14, 6-chloro-7-(2-fluoro-6-hydroxyphenyl)-1-(6-methyl-3-(2-propanyl)-2-pyridinyl)-4-((2S)-2-methyl-4-(2-propenoyl)-1-piperazinyl) pyrido[2,3-d]pyrimidin-2(1H)-one]",12.4 | nda μM
2,"C=CC(=O)N1CCN(c2nc(=O)n(-c3c(C)ncnc3C(C)C)c3nc(-c4ccccc4F)c(Cl)cc23)[C@@H](C)C1 (single isomer, unassigned) [Example 55-13-1]",0.722 | nda μM
3,"C=CC(=O)N1CCN(c2nc(=O)n(-c3ccccc3N3CCOCC3)c3nc(-c4c(O)cccc4F)c(Cl)cc23)[C@@H](C)C1 [Example 54-100, 6-chloro-7-(2-fluoro-6-hydroxyphenyl)-4-((2S)-2-methyl-4-(2-propenoyl)-1-piperazinyl)-1-(2-(4-morpholinyl)phenyl) pyrido[2,3-d] pyrimidin-2(1H)-one]",2.51 | nda μM
4,C=CC(=O)N1CCN(c2nc(=O)n(-c3nccnc3C(C)C)c3nc(-c4ccccc4F)c(Cl)cc23)[C@@H](C)C1 [Example 54-20],2.26 | nda μM
5,"C=CC(=O)N1CCN(c2nc(=O)n(-c3c(C)cnn3C(C)(C)C)c3nc(-c4ccccc4F)c(Cl)cc23)[C@@H](C)C1 (single isomer, unassigned) [Example 55-38-1]",0.534 | nda μM
6,"C=CC(=O)N1C[C@@H]2C[C@H]1CN2c1nc(=O)n(-c2ccccc2C(C)C)c2nc(-c3c(O)cccc3F)c(Cl)cc12 [Example 54-50, 4-((1S,4S)-5-acryloyl-2,5-diazabicyclo [2.2.1]heptan-2-yl)-6-chloro-7-(2-fluoro-6-hydroxyphenyl)-1-(2-isopropylphenyl) pyrido [2,3-d]pyrimidin-2(1H)-one]",88.8 | nda μM
7,"C=CC(=O)N1CCN(c2nc(=O)n(CC(F)(F)F)c3nc(-c4c(O)cccc4F)c(Cl)cc23)[C@@H](C)C1 [Example 54-7, 6-chloro-7-(2-fluoro-6-hydroxyphenyl)-4-((2S)-2-methyl-4-(2-propenoyl)-1-piperazinyl)-1-(2,2,2-trifluoroethyl) pyrido [2,3-d]pyrimidin-2(1H)-one]",1.75 | nda μM
8,"C=CC(=O)N1CCN(c2nc(=O)n(-c3scnc3C3CC3)c3nc(-c4c(O)cccc4F)c(Cl)cc23)[C@@H](C)C1 [Example 56-3, 6-chloro-1-(4-cyclopropyl-1,3-thiazol-5-yl)-7-(2-fluoro-6-hydroxyphenyl)-4-((2S)-2-methyl-4-(2-propenoyl)-1-piperazinyl)pyrido[2,3-d]pyrimidin-2(1H)-one]",3.85 | nda μM
9,"C=CC(=O)N1CCN(c2nc(=O)n(C)c3nc(-c4c(C)ccc5[nH]ncc45)c(Cl)cc23)[C@@H](C)C1 [Example 55-36, 6-chloro-1-methyl-7-(5-methyl-1H-indazol-4-yl)-4-((2S)-2-methyl-4-(2-propenoyl)-1-piperazinyl)pyrido[2,3-d]pyrimidin-2(1H)-one]",38.6 | nda μM
10,"C=CC(=O)N1CCN(c2nc(=O)n(-c3ccccc3C(C)C)c3nc(-c4cc(F)ccc4O)c(Cl)cc23)[C@@H](C)C1 (single isomer, unassigned) [Example 54-78-1]",7.26 | nda μM
11,"C=CC(=O)N1CCN(c2nc(=O)n(-c3c(C4CC4)ccnc3C)c3nc(-c4c(O)cccc4F)c(F)cc23)[C@@H](C)C1 (single isomer, unassigned) [Example 58-19-1]",4.06 | nda μM

# Now from value to compound:
row,Coupled exchange IC50 (5 min),SMILES
1,7.55 | nda μM,"C=CC(=O)N1C[C@@H](C)N(c2nc(=O)n(-c3c(C)ccnc3C(C)C)c3nc(-c4c(O)cccc4F)c(Cl)cc23)[C@H](C)C1 (atropisomer, axis not shown; (M)) [Example 73-19, (M)-6-chloro-4-((2R,6R)-2,6-dimethyl-4-(2-propenoyl)-1-piperazinyl)-7-(2-fluoro-6-hydroxyphenyl)-1-(4-methyl-2-(2-propanyl)-3-pyridinyl)pyrido[2,3-d]pyrimidin-2(1H)-one]"
2,15.4 | nda μM,"C=CC(=O)NCCNc1nc(=O)n(-c2c(C)ccnc2C(C)C)c2nc(-c3ccccc3F)c(Cl)cc12 (single isomer, unassigned) [Example 78-12, (M)-N-(2-((6-chloro-7-(2-fluorophenyl)-1-(4-methyl-2-(2-propanyl)-3-pyridinyl)-2-oxo-1,2-dihydropyrido[2,3-d]pyrimidin-4-yl)amino)ethyl)-2-propenamide]"
3,3.51 | nda μM,"C=CC(=O)N1CCN(c2nc(=O)n(-c3ccccc3C(C)C)c3nc(-c4ccncc4F)c(Cl)cc23)[C@@H](C)C1 [Example 67-1, 6-Chloro-7-(3-fluoro-4-pyridinyl)-4-((2S)-2-methyl-4-(2-propenoyl)-1-piperazinyl)-1-(2-(2-propanyl)phenyl)pyrido[2,3-d]pyrimidin-2(1H)-one]"
4,2.94 | nda μM,"C=CC(=O)N1CCN(c2nc(=O)n(-c3ccccc3C(C)C)c3nc(Cl)c(Cl)cc23)[C@@H](C)C1 (atropisomer, axis not shown; (M)) [Example 61-1-1, (M)-6,7-Dichloro-4-((2S)-2-methyl-4-(2-propenoyl)-1-piperazinyl)-1-(2-(2-propanyl)phenyl)pyrido[2,3-d]pyrimidin-2(1H)-one]"
5,33 | nda μM,"C=CC(=O)N1CCN(c2nc(=O)n(-c3c(F)cccc3C(C)C)c3nc(-c4ccccc4F)c(F)cc23)[C@@H](C)C1 (single isomer, unassigned) [Example 59-3-2]"
6,10.8 | nda μM,"C=CC(=O)N1CCN(c2nc(=O)[nH]c3nc(-c4c(O)cccc4F)c(Cl)cc23)[C@@H](C)C1 [Example 119, 6-Chloro-7-(2-fluoro-6-hydroxyphenyl)-4-((2S)-2-methyl-4-(2-propenoyl)-1-piperazinyl)pyrido[2,3-d]pyrimidin-2(1H)-one]"
7,21.2 | nda μM,"C=CC(=O)N1CCN(c2nc(=O)n(-c3c(CC)cccc3CC)c3nc(N4CC[C@H](C)C4)c(Cl)cc23)[C@@H](C)C1 [Example 66-5, 6-chloro-1-(2,6-diethylphenyl)-4-((2S)-2-methyl-4-(2-propenoyl)-1-piperazinyl)-7-((3S)-3-methyl-1-pyrrolidinyl)pyrido[2,3-d]pyrimidin-2(1H)-one]"
8,2.91 | nda μM,"C=CC(=O)N1CCN(c2nc(=O)n(-c3c(C)ccnc3C(C)C)c3nc(-c4cccc(O)c4F)c(F)cc23)[C@@H](C)C1 (atropisomer, axis not shown; (M)) [Example 72-5, (M)-6-fluoro-7-(2-fluoro-3-hydroxyphenyl)-1-(4-methyl-2-(2-propanyl)-3-pyridinyl)-4-((2S)-2-methyl-4-(2-propenoyl)-1-piperazinyl)pyrido[2,3-d]pyrimidin-2(1H)-one]"
9,16.6 | nda μM,"C=CC(=O)N1C[C@@H](C)N(c2nc(=O)n(-c3c(C)ccnc3C(C)C)c3nc(-c4ccccc4F)c(Cl)cc23)[C@H](C)C1 (single isomer, unassigned) [Example 78-16]"
10,27.2 | nda μM,"C=CC(=O)N1CCN(c2cc(=O)n(-c3ccccc3C(C)C)c3nc(-c4ccccc4F)ccc23)[C@@H](C)C1 [Example 127, 7-(2-fluorophenyl)-4-((2S)-2-methyl-4-(2-propenoyl)-1-piperazinyl)-1-(2-(2-propanyl)phenyl)-1,8-naphthyridin-2(1H)-one]"
11,2.16 | nda μM,"C=CC(=O)N1CCN(c2nc(=O)n(-c3ccccc3C(C)C)c3nc(-c4ccccc4F)c(C)cc23)[C@@H](C)C1 (single isomer, unassigned) [Example 74-1-1]"
12,89.7 | nda μM,"C=CC(=O)N1CCN(c2nc(=O)n(-c3c(CC)cccc3CC)c3nc(N4CCOC(CC)C4)c(Cl)cc23)[C@@H](C)C1 (stereo partly drawn) [Example 66-15, 6-chloro-1-(2,6-diethylphenyl)-7-(2-ethyl-4-morpholinyl)-4-((2S)-2-methyl-4-(2-propenoyl)-1-piperazinyl)pyrido[2,3-d]pyrimidin-2(1H)-one]"
13,33 | nda μM,C=CC(=O)N1CCN(c2nc(=O)n(-c3c(CC)cccc3CC)c3nc(N4CCC(C(C)(C)C)C4)c(Cl)cc23)[C@@H](C)C1 (stereo partly drawn) [Example 66-21]
14,7.34 | nda μM,"C=CC(=O)N1CCN(c2nc(=O)n(-c3ccccc3C(C)C)c3nc(-c4cccs4)c(Cl)cc23)[C@@H](C)C1 (single isomer, unassigned) [Example 67-4-1]"

# Reference: patent US11090304B2 (Amgen Inc., priority 2018, dated 2021)
